In patent US11918770B2, “Implants for localized drug delivery and methods of use thereof” (The Regents of the University of California, priority 2014, dated 2024):
“Also recorded” adds a separate entry of the source. Each block holds one compound with its values, some of them ahead of it.

Tests used:
[1] = system: progesterone receptor (PgR) mRNA; test: Progesterone receptor mRNA by qRT-PCR in MCF7 cells treated with medium containing released E2; format: cell-based; conditions: estradiol released from Silastic tubing into culture medium, MCF7 cells treated 24 hours
Procedure: The effect of estradiol released from Silastic® tubing loaded with estradiol and placed in culture medium was monitored, using conditions similar to that described in Example 2.
FIG. 23: Drug (E2) was loaded into 3 independent silastic tubes, dried, and sealed before incubating them in tissue culture medium for the indicated number of days. The tubes were then removed and MCF7 cells were treated with the medium. For the E2 experiment, MCF7 cells were first depleted of E2 by growing for 48 hours in FBS stripped media. Then, after 24 hours of treatment with media containing released E2, cells were harvested and progesterone receptor mRNA was quantified by quantitative real-time (qRT)-polymerase chain reaction (PCR) using TaqMan® probes from Applied Biosystems. As controls, MCF7 cells untreated and treated directly with 10 nM E2 were run.

[2] = Drug release from loaded Silastic tubing in culture media (LC-MS/MS); format: physicochemical; conditions: for drug transfer from Silastic tubing: Silastic tubing depot approach
Procedure: (§1) Each sealed (10 cm) tube was immersed into a 10 cm culture tube containing 5 mL culture media (Dulbecco's Modified Eagle's medium (DMEM)+10% fetal bovine serum (FBS)+penicillin and streptomycin) approximating interstitial tissue surrounding the breast tissue. These tubes were set on a rocker in an incubator at 37° C. for 1, 2, 5, 10, 15, 21 and 30 days. After each time point media was collected and stored at −80° C. for further analysis for western blotting, viability/proliferation assay by MTS (3-(4,5-dimethylthiazol-2-yl)-5-(3-carboxymethoxyphenyl)-2-(4-sulfophenyl)-2H-tetrazolium) and quantitation by liquid chromatography-tandem mass spectrometry (LC-MS/MS). Additional iteration was to perform repeated washes on the same sealed tube and collect the culture medium at days 1, 2, 5, 10, 15, 21, and 30.
(§2) A validated LC-MS/MS method was used for quantitation of fulvestrant. Sample was prepared by liquid-liquid extraction procedures with n-hexane-isopropanol (90:10, v/v). Extracts were concentrated (using a nitrogen stream at room temperature) and […] with 2 volumes of mobile phase buffer, and injected into a Sciex ultra performance liquid chromatorgraphy (UPLC) coupled with a Sciex API 5000™ triple quadrupole mass spectrometer. Data was acquired and analyzed by Analyst® MS software.
Media was harvested semi-weekly (84 hrs).

[3] = Drug release from loaded Silastic tubing in saline (LC-MS/MS); format: physicochemical
Procedure: Every 84 hours the saline was collected and replaced with fresh saline.
as §2
Every 84 hours, saline was collected and replaced with fresh saline. Fulvestrant was quantified in collected saline by liquid chromatography mass spectrometry.

[4] = system: MCF7 ER-positive breast cancer cells; test: MTS viability/proliferation assay of MCF7 cells; format: cell-based
Procedure: as §1
(§3) MCF-7 culture were propagated and seeded in 6 cm dishes at 300,000 cells per dish and allowed to adhere overnight as a monolayer. […] The drug concentrations and biological effects of the drug eluted from specific tubes were evaluated by Mass spectroscopy, Western Blot analysis and antiproliferative methods after exposure for 3 days.
At the end of the exposure, medium was replaced by MTS dye diluted (200 μL per well) in culture medium and incubated for up to 2 hours at 37° C. Optical density (490 nm) at the end of the time points (1, 1.5 and 2 hours) was measure and plotted as a ratio of absorbance (day/untreated).
Media containing tubing released drug at respective times was then added to cultured MCF7 ER-positive breast cancer cells and grown for 72 hours.
(§4) The medium was then used to culture MCF7 cells for 72 h, and the cells were assayed for proliferation by MTS assay (Panel A) and harvested for protein and western blotted for ER and PR expression (Panel B).

[5] = in 10% ethanol, 10% benzyl alcohol, 15% benzyl benzoate, and to 100% with castor oil (Faslodex®); cited from earlier work
[6] = Visual examination of organs for overt pathology in implanted mice; format: in vivo, CD-1 female mice; conditions: Silastic depot with dry fulvestrant implanted subcutaneously, 9 week period
Source text: (§5) Mice were monitored for body weight loss, activity, adequate grooming, and general behavior daily for the first week, followed by alternate days up to […]. Mice were euthanized and blood and organs were collected after 1, 2, 3, 4, 6 and 9 weeks (FIGS. 21 and 22).

[7] = Fulvestrant level in blood and mammary tissue of mice with Silastic implant; format: in vivo, CD-1 female mice; conditions: 2 cm RX50 silastic tubing, 0.076 mg/cm dry fulvestrant, adjacent to inguinal mammary fat pad
Procedure: as §5
Blood from anaesthetized CD-1 female mice were collected in Vacutainer® tubes coated with K2 ethylenediaminetetraacetic acid (EDTA) via cardiac puncture. Plasma was separated by centrifugation at 6,000×g for 10 minutes and stored at −80° C. […] Harvested tissue was homogenized in saline on ice and then subjected to liquid-liquid phase extraction and evaluated for their levels of fulvestrant by LC-MS/MS as described above.
After the indicated number of weeks the mice were euthanized and tissue was harvested.

[8] = biological target: T1, estrogen receptor (ER) (Homo sapiens, UniProt P03372); test: Western blot for ER and PR expression in MCF7 cells; format: cell-based
T1 sequence (P03372 1-595): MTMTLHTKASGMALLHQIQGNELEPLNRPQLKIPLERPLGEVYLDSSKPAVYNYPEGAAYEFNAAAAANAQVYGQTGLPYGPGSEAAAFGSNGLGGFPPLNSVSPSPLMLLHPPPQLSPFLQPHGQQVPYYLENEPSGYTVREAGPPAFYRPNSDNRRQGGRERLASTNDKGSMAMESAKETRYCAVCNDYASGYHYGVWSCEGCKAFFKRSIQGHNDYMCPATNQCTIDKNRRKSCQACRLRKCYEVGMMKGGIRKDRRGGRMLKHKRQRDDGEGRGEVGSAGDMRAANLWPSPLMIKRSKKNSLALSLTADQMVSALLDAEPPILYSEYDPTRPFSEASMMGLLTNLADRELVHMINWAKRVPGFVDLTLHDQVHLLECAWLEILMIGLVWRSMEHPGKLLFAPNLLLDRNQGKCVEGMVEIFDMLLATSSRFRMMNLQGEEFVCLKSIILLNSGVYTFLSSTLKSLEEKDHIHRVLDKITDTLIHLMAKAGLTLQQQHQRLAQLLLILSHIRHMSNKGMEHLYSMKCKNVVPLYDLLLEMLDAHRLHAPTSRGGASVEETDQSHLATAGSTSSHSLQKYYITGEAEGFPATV
Procedure: as §1, §3, §4

[9] = distribution coefficient between water and octanol; cited from earlier work
[10] = MCF7 cells treated directly with 100 nM fulvestrant (positive control)

Compound: C[C@]12CC[C@@H]3c4ccc(O)cc4CC[C@H]3[C@@H]1CC[C@@H]2O [estradiol]
duration of sustained increase in progesterone receptor (PgR) mRNA expression [1]: up to 15 days

duration of sustained release into culture medium ([2]; fulvestrant loaded Silastic tubing, media harvested semi-weekly (84 hrs), LC-MS/MS): up to 22 weeks
extrapolated duration of release ([3]; based on rate of release and amount of fulvestrant in the device): exceeds 10 years
duration of steady release ([3]; saline, 37 C): exceeding 7 months
rate of fulvestrant released ([3]; saline, 37 C, after 5 weeks, average): 7.77 ng/cm tubing*day
overt pathology of organs (color, size, general condition) [6]: none
fulvestrant in mammary tissue ([7]; all mice): significant fulvestrant was detectable
fulvestrant in blood ([7]; weeks 1-9, all but one mouse at week 4): < 4 nM
duration of consistent weekly fulvestrant release, as measured by ER and PR down regulation ([8]; weekly release from Silastic tubing, cell culture models): more than 4 weeks
Compound: C[C@]12CC[C@@H]3c4ccc(O)cc4C[C@@H](CCCCCCCCC[S+]([O-])CCCC(F)(F)C(F)(F)F)[C@H]3[C@@H]1CC[C@@H]2O (stereo partly shown) [fulvestrant]
cell growth [4, 10]: arrest cell growth
tube equilibration time sufficient for growth inhibition and ER down regulation comparable to 100 nM fulvestrant ([4]; Silastic tubing 9 cm, 0.076 mg/cm dry fulvestrant, in culture media): 2 to 5 days
antiproliferative effects ([4]; fulvestrant added directly, concentration curves 10-50 nM and up to 10 μM, 72 hours): sufficient to block estrogen receptor signaling and proliferation
growth inhibition and estrogen receptor down regulation ([4]; medium with fulvestrant released from Silastic tubing (0.076 mg/cm dry fulvestrant), MCF7 cells 72 h): comparable to cells directly treated with fulvestrant (100 nM); also recorded: sufficient to abrogate ER signaling and reduce cell proliferation
solubility [5]: up to 50 mg/mL
ER expression [8, 10]: sufficient to down regulate ER expression
log D [9]: around 8.47

drug transfer from Silastic tubing [2]: amenable to drug transfer
Compound: O=C(c1ccc(OCCN2CCCCC2)cc1)c1c(-c2ccc(O)cc2)sc2cc(O)ccc12 [raloxifene]
log D [9]: around 5.406

drug transfer from Silastic tubing [2]: amenable to drug transfer
Compound: 4-hydroxytamoxifen
